This test deals with T1, human 5-HT1A receptors (Homo sapiens, UniProt P08908).
T1 construct: expressed in transfected cells; membranes used
T1 sequence (P08908 1-422): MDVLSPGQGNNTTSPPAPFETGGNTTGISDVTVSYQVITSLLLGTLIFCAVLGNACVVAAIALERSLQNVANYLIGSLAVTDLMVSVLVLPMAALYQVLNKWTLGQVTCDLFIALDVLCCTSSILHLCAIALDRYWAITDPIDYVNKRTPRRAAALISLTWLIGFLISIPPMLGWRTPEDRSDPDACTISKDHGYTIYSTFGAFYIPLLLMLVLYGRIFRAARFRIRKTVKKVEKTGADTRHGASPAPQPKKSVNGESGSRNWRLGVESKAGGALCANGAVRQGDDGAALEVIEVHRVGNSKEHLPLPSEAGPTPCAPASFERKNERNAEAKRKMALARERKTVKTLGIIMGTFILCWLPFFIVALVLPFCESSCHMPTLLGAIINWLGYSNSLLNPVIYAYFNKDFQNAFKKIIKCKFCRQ
The experiment in a line: [35S]-GTPγS binding assay: enhancement of 8-OH-DPAT-induced stimulation, human 5-HT1A CHO cell membranes. The class given is biochemical. To be noted: n=6. The method, then:
CHO cells stably transfected with cDNA encoding human 5-HT1A receptors (a generous gift from Dr Keith Parker) were maintained at 37° C. and 5% CO2 in Gibco™ Ham's F-12 Nutrient Mix supplied by Fisher Scientific UK Ltd that was supplemented both with 2 mM L-glutamine, 10% FBS and 0.6% penicillin-streptomycin, all also supplied by Fisher Scientific UK Ltd, and with the disulphate salt of G418 [(2R,3S,4R,5R,6S)-5-amino-6-{[(1R,2S,3S,4R,6S)-4,6-diamino-3-{[(2R,3R,4R,5R)-3,5-dihy-droxy-5-methyl-4-(methylamino)oxan-2-yl]oxy}2-hydroxy cyclohexyl]oxy}-2-[(1R)-1-hydroxyethyl]oxane-3,4-diol; […]] supplied by Sigma-Aldrich UK.
[^35S]-GTPγS binding assay. Each assay was carried out with human 5-HT1A CHO cell membranes (50 μg protein per well), GTPγS-binding buffer (50 mM Tris-HCl; 50 mM Tris-Base; 5 mM MgCl2; 1 mM EDTA; 100 mM NaCl; 1 mM DTT and 0.1% BSA), 0.1 nM [^35S]-GTPγS and 30 μM GDP, in a final volume of 500 μL (Cascio et al., 2010). Binding was initiated by the addition of [^35S]-GTPγS to the wells. Non-specific binding was measured in the presence of 30 μM GTPγS. Assays were performed at 30° C. for 60 min (Cascio et al., 2010). The reaction was terminated by a rapid vacuum filtration method using Tris-binding buffer as described previously by Cascio et al. (2010), and the radioactivity was quantified by liquid scintillation spectrometry. In all the [^35S]-GTPγS-binding assays, 0.1 nM [^35S]-GTPγS was used, […] and a protein concentration of […]. CBDA, HU-580, 8-OH-DPAT and WAY100635 were stored at −20° C. as 10 mM stock solutions dissolved in DMSO.
Net agonist-stimulated [^35S]-GTPγS binding values were calculated by subtracting basal binding values (obtained in the absence of agonist) from agonist-stimulated values (obtained in the presence of agonist) (Cascio et al., 2010). Values are expressed as means and variability as SEM or as 95% confidence limits. Mean EC50 and mean maximal effect (Emax) values, and SEM or 95% confidence limits of these values, have been calculated by nonlinear regression analysis using the equation for a sigmoid concentration-response curve (GraphPad Prism). P values<0.05 were considered significant. The data and statistical analysis comply with the recommendations on experimental design and analysis in pharmacology (Curtis et al., 2015).
(Binding of GTPγS marks nucleotide exchange on a G protein.)

SMILES strings stand for the structures.

For the molecule `C=C(C)[C@@H]1CCC(C)=C[C@H]1c1c(O)cc(CCCCC)c(C(=O)O)c1O` [CBDA, Cannabidiolic acid], the Emax (pretreatment 0.01 nM CBDA (FIG. 1A)) is 95.6%; the Emax (pretreatment 0.1 nM CBDA (FIG. 1B), * P<0.05 vs vehicle) turned out to be 115%; the Emax (pretreatment 1.0 nM CBDA (FIG. 1C), * P<0.05 vs vehicle) turned out to be 167%; the Emax (pretreatment 10 nM CBDA (FIG. 1D), * P<0.05 vs vehicle) came to 144%; the Emax (pretreatment 100 nM CBDA (FIG. 1E)) was determined as 109%.
`C=C(C)[C@@H]1CCC(C)=C[C@H]1c1c(O)cc(CCCCC)c(C(=O)OC)c1O` [HU-580, Cannabidiolic Acid Methyl Ester]: under “administered by itself at 0.01, 0.1, 1, 10 or 100 nM, data not shown”, the “Effect of the compound by itself on [35S]-GTPγS binding (agonist or inverse agonist behaviour)” value is “did not behave as a 5-HT1A receptor agonist or inverse agonist”. The Emax was 99.8% (pretreatment 0.001 nM HU-580 (FIG. 2A)); 127% (pretreatment 0.001 nM HU-580 (FIG. 2B), * P<0.05 vs vehicle); 125% (pretreatment 0.1 nM HU-580 (FIG. 2C), * P<0.05 vs vehicle); 140% (pretreatment 1.0 nM HU-580 (FIG. 2D), * P<0.05 vs vehicle); 139% (pretreatment 10 nM HU-580 (FIG. 2E), * P<0.05 vs vehicle); 92% (pretreatment 100 nM HU-580 (FIG. 2F)).

The Emax is the size of the effect at its maximum, as opposed to the concentration needed.

Values taken from US11440870B2, “Cannabidiolic acid esters compositions and uses thereof” (Yissum Research Development Company of the Hebrew …, priority 2017, dated 2022).
